Assay results reported in patent publication US11690854B2, “Methods of treating heavy menstrual bleeding” (priority 2018, dated 2023).
Marks after values point to notes of the source that are not given here.

Experiments:
[1] = tested on: premenopausal women with endometriosis with associated pain; assay: Phase 3 Study EM-II (and extension EM-IV); type: in vivo, human
Description: Each placebo-controlled study assessed the reduction in endometriosis-associated pain over 6 months of treatment. More than 75 percent of women who completed Study EM-I and EM-II enrolled in the extension studies for an additional 6 month treatment period. Subjects were followed for up to 12 months post-treatment. The co-primary efficacy endpoints were the proportion of responders for dysmenorrhea and pelvic pain not related to menses (also known as non-menstrual pelvic pain [NMPP]) at Month 3 compared to placebo. The primary analysis independently evaluated these endpoints using a daily diary that asked patients to assess their pain and its impact on their daily activities, over the previous 24 hours. […] Women were defined as responders if they experienced clinically meaningful reduction in dysmenorrhea and/or NMPP with no increased analgesic use for endometriosis associated pain. Dyspareunia was evaluated as a secondary endpoint using the Daily Endometriosis Pain Impact Scale.

mice = assay: 2-year carcinogenicity study in mice; type: in vivo; conditions: mouse; any dose
rats = assay: Lactation study in rats (secretion in milk); type: in vivo
Experimental: Pregnant rats were given diet containing elagolix throughout the gestation and lactation periods to achieve a daily elagolix dose of 400 mg/kg. During nursing the dams and litters were divided into restricted feeding and non-restricted groups to determine whether elagolix was secreted in the mother's milk. […] In pups of the non-restricted feeding group, elagolix plasma concentrations were measurable and approximately 1% of the mother's plasma concentrations.

healthy women = assay: 3-menstrual cycle study in healthy women; type: in vivo, human
[2] = Mutagenicity studies using in vitro and in vivo test systems
Description: Mutagenicity studies have been performed with elagolix using in vitro and in vivo test systems.

[3] = tested on: premenopausal women with endometriosis with associated pain; assay: Phase 3 Studies EM-I and EM-II together, with extension studies; type: in vivo, human; conditions: for Depressed Mood, depression, depressive symptoms and or tearfulness, %: placebo 2.3; for Mood altered, mood swings, %: placebo 3.4; for Mean Intensity score (1 = spotting to 4 = heavy) / Mean bleeding/spotting days in prior 28 days: Month 3; for Mean Intensity score (1 = spotting to 4 = heavy): placebo 2.6 to 2.4; for Mean bleeding/spotting days in prior 28 days: placebo 5.4 to 4.6; for Percentage of patients with adverse reaction: Anxiety / Percentage of patients with adverse reaction: Arthralgia / Percentage of patients with adverse reaction: Insomnia: placebo 3; for Percentage of patients with adverse reaction: Nasopharyngitis / Percentage of patients with adverse reaction: Sinusitis: placebo 4; for Percentage of patients with adverse reaction: Upper Respiratory Tract Infection: placebo 5; for Percentage of patients with adverse reaction: Hot Flush: placebo 9; for Percentage of patients with adverse reaction: Headache: placebo 12; for Percentage of patients with adverse reaction: Nausea: placebo 13; for Percentage of patients with adverse reaction: Amenorrhoea: placebo <1; for Mean increase from pretreatment baseline in HDL-C / Mean increase from pretreatment baseline in LDL-C / Mean increase from pretreatment baseline in triglycerides: 6-month treatment; for Patients who discontinued therapy due to adverse reactions: EM-I and EM-II; for Patients with Z-score below the normal lower bound of −2.0: following 12 months of treatment; for Patients with asymptomatic elevations of serum ALT to at least 3-times the upper limit of the reference range: placebo 1/696, 0.1%
Description: Each placebo-controlled study assessed the reduction in endometriosis-associated pain over 6 months of treatment. More than 75 percent of women who completed Study EM-I and EM-II enrolled in the extension studies for an additional 6 month treatment period. Subjects were followed for up to 12 months post-treatment. Women in these studies also provided a daily self-assessment of their endometriosis pain using the Numeric Rating Scale (NRS), on a scale ranging from 0 (no pain) to 10 (worst pain ever). […] The population age range was 18-49 years old. Women who completed six months of treatment and met eligibility criteria continued treatment in two blinded six-month extension studies, for a total treatment duration of up to 12 months. In the placebo-controlled and extension clinical studies, BMD was measured by DXA. Changes observed in BMD at other anatomical sites (femoral neck, total hip) were generally smaller than lumbar spine.

COc1cccc(-c2c(C)n(Cc3c(F)cccc3C(F)(F)F)c(=O)n(C[C@H](NCCCC(=O)O)c3ccccc3)c2=O)c1F [Elagolix, 4-((R)-2-[5-(2-fluoro-3-methoxy-phenyl)-3-(2-fluoro-6-trifluoromethyl-benzyl)-4-methyl-2,6-dioxo-3,6-dihydro-2H-pyrimidin-1-yl]-1-phenyl-ethylamino)-butyric acid]
Proportion of responders for Dyspareunia (Daily Endometriosis Pain Impact Scale) ([1]; 150 mg QD, Month 3, n/N 70/159, placebo 39.5): 44.0%
Proportion of responders for dysmenorrhea (Daily Endometriosis Pain Impact Scale) ([1]; 150 mg QD, Month 3, n/N 96/221, placebo 22.7): 43.4%***
Proportion of responders for Non-Menstrual Pelvic Pain (Daily Endometriosis Pain Impact Scale) ([1]; 150 mg QD, Month 3, n/N 110/221, placebo 36.5): 49.8** %
Proportion of responders for Dyspareunia (Daily Endometriosis Pain Impact Scale) ([1]; 150 mg QD, Month 6, n/N 65/163, placebo 39.4): 39.9%
Proportion of responders for dysmenorrhea (Daily Endometriosis Pain Impact Scale) ([1]; 150 mg QD, Month 6, n/N 102/221, placebo 25.4): 46.2%***
Proportion of responders for Non-Menstrual Pelvic Pain (Daily Endometriosis Pain Impact Scale) ([1]; 150 mg QD, Month 6, n/N 114/221, placebo 40.6): 51.6%**
Proportion of responders for Dyspareunia (Daily Endometriosis Pain Impact Scale) ([1]; 200 mg BID, Month 3, n/N 87/162, placebo 39.5): 53.7** %
Proportion of responders for Non-Menstrual Pelvic Pain (Daily Endometriosis Pain Impact Scale) ([1]; 200 mg BID, Month 3, n/N 130/225, placebo 36.5): 57.8*** %
Proportion of responders for dysmenorrhea (Daily Endometriosis Pain Impact Scale) ([1]; 200 mg BID, Month 3, n/N 163/225, placebo 22.7): 72.4*** %
Proportion of responders for Dyspareunia (Daily Endometriosis Pain Impact Scale) ([1]; 200 mg BID, Month 6, n/N 92/165, placebo 39.4): 55.8*** %
Proportion of responders for Non-Menstrual Pelvic Pain (Daily Endometriosis Pain Impact Scale) ([1]; 200 mg BID, Month 6, n/N 140/225, placebo 40.6): 62.2*** %
Proportion of responders for dysmenorrhea (Daily Endometriosis Pain Impact Scale) ([1]; 200 mg BID, Month 6, n/N 173/225, placebo 25.4): 76.9*** %
Tumors in 2-year carcinogenicity study (mice): no increase in tumors
Elagolix plasma concentrations in pups relative to the mother's plasma concentrations (rats; non-restricted feeding group, dams 400 mg/kg daily in diet): approximately 1%
Secretion in milk (rats; rats, pup plasma as surrogate of exposure via lactation): minimally secreted in milk
Elagolix plasma concentrations in pups (rats; restricted feeding litters, post natal day 10 and 20, dams 400 mg/kg daily in diet): not measurable
Ovulation rate (healthy women; 150 mg QD): approximately 50%
Mean endometrial thickness (transvaginal ultrasound) (healthy women; 150 mg QD and 200 mg BID, compared to pretreatment values): dose dependent decrease in the mean endometrial thickness
Ovulation rate (healthy women; 200 mg BID): ~32%
Mutagenic or clastogenic potential [2]: no evidence of a mutagenic or clastogenic potential
Completed Suicide, % ([3]; 150 mg Once Daily (N = 475)): (0.2) %
Suicidal ideation, % ([3]; 150 mg Once Daily (N = 475)): (0.2) %
Depressed Mood, depression, depressive symptoms and or tearfulness, % ([3]; 150 mg Once Daily (N = 475)): (2.7) %
Mood altered, mood swings, % ([3]; 150 mg Once Daily (N = 475)): (5.7) %
Mean Intensity score (1 = spotting to 4 = heavy) ([3]; 150 mg Once Daily, baseline 2.6): 2.2
Mean bleeding/spotting days in prior 28 days ([3]; 150 mg Once Daily, baseline 5.3): 2.8 days
Discontinuations due to hot flush ([3]; 150 mg QD): 0.8%
Discontinuations due to nausea ([3]; 150 mg QD): 0.8%
Numeric Rating Scale (NRS) endometriosis pain scores ([3]; 150 mg QD and 200 mg BID, Month 3 and Month 6): highly statistically (p<0.001) significant reduction in NRS scores compared to placebo
Percentage of patients with adverse reaction: Anxiety ([3]; 150 mg QD, N = 475): 3%
Percentage of patients with adverse reaction: Arthralgia ([3]; 150 mg QD, N = 475): 3%
Percentage of patients with adverse reaction: Insomnia ([3]; 150 mg QD, N = 475): 6%
Percentage of patients with adverse reaction: Nasopharyngitis ([3]; 150 mg QD, N = 475): 6%
Percentage of patients with adverse reaction: Sinusitis ([3]; 150 mg QD, N = 475): 5%
Percentage of patients with adverse reaction: Upper Respiratory Tract Infection ([3]; 150 mg QD, N = 475): 6%
Percentage of patients with adverse reaction: Hot Flush ([3]; 150 mg QD, N = 475): 23%
Percentage of patients with adverse reaction: Headache ([3]; 150 mg QD, N = 475): 17%
Percentage of patients with adverse reaction: Nausea ([3]; 150 mg QD, N = 475): 11%
Percentage of patients with adverse reaction: Amenorrhoea ([3]; 150 mg QD, N = 475): 4%
Mean increase from pretreatment baseline in HDL-C ([3]; 150 mg QD): 2.24 mg/dL
Mean increase from pretreatment baseline in LDL-C ([3]; 150 mg QD): 5.25 mg/dL
Mean increase from pretreatment baseline in triglycerides ([3]; 150 mg QD): 0.42 mg/dL
Patients who discontinued therapy due to adverse reactions ([3]; 150 mg QD): 5.5%
% Subjects with lumbar spine Z-score ≤−1.5 ([3]; 150 mg QD, on treatment Month 6, N 360): 0.8%
Mean Percent Change from baseline in lumbar spine bone mineral density ([3]; 150 mg QD, on treatment Month 6, N 360, 95% CI −0.79, −0.26): −0.52%
% Subjects with lumbar spine Z-score ≤−1.5 ([3]; 150 mg QD, on treatment Month 12, N 235): 1.3%
Mean Percent Change from baseline in lumbar spine bone mineral density ([3]; 150 mg QD, on treatment Month 12, N 235, 95% CI −1.29, −0.45): −0.87%
Estradiol level (suppression to) ([3]; 150 mg QD, partial suppression): approximately 50 pg/mL
Patients with Z-score below the normal lower bound of −2.0 ([3]; 150 mg daily dose): no patient
Patients with asymptomatic elevations of serum ALT to at least 3-times the upper limit of the reference range ([3]; 150 mg once daily, 1/450): 0.2%
Incidence of amenorrhea (no bleeding or spotting in a 56-day interval) ([3]; 150 mg once daily, first six months of treatment, placebo less than 1%): 6-17%
Incidence of amenorrhea (no bleeding or spotting in a 56-day interval) ([3]; 150 mg once daily, second 6 months of treatment): 11-15%
Discontinuations due to hot flush ([3]; 200 mg BID): 2.5%
Discontinuations due to nausea ([3]; 200 mg BID): 1.5%
Percentage of patients with adverse reaction: Anxiety ([3]; 200 mg BID, N = 477): 5%
Percentage of patients with adverse reaction: Arthralgia ([3]; 200 mg BID, N = 477): 5%
Percentage of patients with adverse reaction: Insomnia ([3]; 200 mg BID, N = 477): 9%
Percentage of patients with adverse reaction: Nasopharyngitis ([3]; 200 mg BID, N = 477): 6%
Percentage of patients with adverse reaction: Sinusitis ([3]; 200 mg BID, N = 477): 6%
Percentage of patients with adverse reaction: Upper Respiratory Tract Infection ([3]; 200 mg BID, N = 477): 4%
Percentage of patients with adverse reaction: Hot Flush ([3]; 200 mg BID, N = 477): 45%
Percentage of patients with adverse reaction: Headache ([3]; 200 mg BID, N = 477): 20%
Percentage of patients with adverse reaction: Nausea ([3]; 200 mg BID, N = 477): 16%
Percentage of patients with adverse reaction: Amenorrhoea ([3]; 200 mg BID, N = 477): 7%
Mean increase from pretreatment baseline in HDL-C ([3]; 200 mg BID): 4.16 mg/dL
Mean increase from pretreatment baseline in LDL-C ([3]; 200 mg BID): 13.10 mg/dL
Mean increase from pretreatment baseline in triglycerides ([3]; 200 mg BID): 11.08 mg/dL
Patients who discontinued therapy due to adverse reactions ([3]; 200 mg BID): 9.6%
Percent change from baseline of averaged daily opioid pills (FIG. A-5) ([3]; 200 mg BID, compared with placebo): significant decrease from baseline in the percent change of averaged daily opioid pills at Months 3 through 6
Patients with Z-score below the normal lower bound of −2.0 ([3]; 200 mg BID): less than 1%
Estradiol level (suppression to) ([3]; 200 mg BID, nearly full suppression): approximately 12 pg/mL
% Subjects with lumbar spine Z-score ≤−1.5 ([3]; 200 mg BID, on treatment Month 6, N 365): 4.1%
Mean Percent Change from baseline in lumbar spine bone mineral density ([3]; 200 mg BID, on treatment Month 6, N 365, 95% CI −2.81, −2.28): −2.54%
% Subjects with lumbar spine Z-score ≤−1.5 ([3]; 200 mg BID, on treatment Month 12, N 217): 5.1%
Mean Percent Change from baseline in lumbar spine bone mineral density ([3]; 200 mg BID, on treatment Month 12, N 217, 95% CI −4.19, −3.32): −3.76%
Suicidal ideation, % ([3]; 200 mg Twice Daily (N = 477)): (0.2) %
Depressed Mood, depression, depressive symptoms and or tearfulness, % ([3]; 200 mg Twice Daily (N = 477)): (6.1) %
Mood altered, mood swings, % ([3]; 200 mg Twice Daily (N = 477)): (5.2) %
Mean Intensity score (1 = spotting to 4 = heavy) ([3]; 200 mg Twice Daily, baseline 2.5): 2.0
Mean bleeding/spotting days in prior 28 days ([3]; 200 mg Twice Daily, baseline 5.7): 0.8 days
Patients with asymptomatic elevations of serum ALT to at least 3-times the upper limit of the reference range ([3]; 200 mg twice daily, 5/443): 1.1%
Incidence of amenorrhea (no bleeding or spotting in a 56-day interval) ([3]; 200 mg twice daily, first six months of treatment, placebo less than 1%): 13-52%
Incidence of amenorrhea (no bleeding or spotting in a 56-day interval) ([3]; 200 mg twice daily, second 6 months of treatment): 46-57%
Percentage of days in which rescue opioid medication was taken ([3]; 150 QD and 200 BID, pooled analysis, compared with placebo): significant reduction in the percentage of days in which rescue opioid medication was taken
Mean decreases from Baseline in dysmenorrhea scores ([3]; both treatment groups (150 mg QD, 200 mg BID)): statistically significantly greater than placebo beginning at Month 1 and persisted through Month 6
BMD after stopping treatment ([3]; both treatment groups, lumbar spine, total hip and femoral neck, post-treatment months 6 and 12): progressive recovery of BMD
Durability of improvement in extension studies EM-III and EM-IV ([3]; patients maintained on their dose): durability of improvement in dysmenorrhea, NMPP and dyspareunia was demonstrated for a total of 12 months
